{
  "source": "paper PMC5766511",
  "about": "(Scientific Reports, 2018)",
  "key": {"[1]": {"molecular_target": "HLA-DR3 (DRB1*03:01) heterodimer (Homo sapiens, UniProt P01903+P01911, A100K/A102G/A103R/A169T/F55Y/I96L/K41T/L162R/M171V/P40S/Q125H/Q178H/Q39Y/R42S/S66N/T106N/T262R/W38E/Y61H)", "sequence (P01903 26-254 limits assumed, other chains not shown)": "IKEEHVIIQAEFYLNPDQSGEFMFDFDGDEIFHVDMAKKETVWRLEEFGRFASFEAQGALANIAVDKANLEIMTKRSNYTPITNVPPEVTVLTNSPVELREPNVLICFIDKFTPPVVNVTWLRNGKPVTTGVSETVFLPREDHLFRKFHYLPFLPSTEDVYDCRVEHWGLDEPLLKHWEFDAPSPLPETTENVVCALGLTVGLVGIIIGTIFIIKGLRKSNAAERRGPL", "experiment": "biochemical"}, "[2]": {"molecular_target": "HLA-DR15 (DRB1*15:01) heterodimer (Homo sapiens, UniProt P01903+P01911)", "experiment": "biochemical", "format": "binding"}, "[3]": {"system": "draining lymph node cells of HLA-DQ8 (DQB1*0302) transgenic mice", "format": "cell-based, mouse", "conditions": "n = 6"}, "[4]": {"system": "splenocytes of ZIKV (PF13/251013-18) infected AG129 mice", "format": "cell-based, mouse", "conditions": "n = 5"}, "[5]": {"system": "draining lymph node cells of HLA-DR1501 (DRB1*1501) transgenic mice", "format": "cell-based, mouse", "conditions": "primed with 25 μg recombinant ZIKV Env; day 10 DLN cells; positive if > 2 SD above mean without antigen; n = 6; Fig. 2B"}, "[6]": {"system": "draining lymph node cells of HLA-DR1 (DRB1*0101) transgenic mice", "format": "cell-based, mouse", "conditions": "n = 6"}},
  "note": "Entries after “also recorded” stand apart in the source; their conditions may differ.",
  "data": [
    {"molecule": "CC[C@H](C)[C@H](NC(=O)[C@@H](NC(=O)[C@H](CCCCN)NC(=O)[C@H](C)NC(=O)[C@H](C)N)[C@@H](C)O)C(=O)N[C@@H](C)C(=O)N[C@@H](Cc1ccc(O)cc1)C(=O)N[C@@H](CC(=O)O)C(=O)N[C@@H](CCC(=O)O)C(=O)N[C@@H](CCC(=O)O)C(=O)N[C@@H](C)C(=O)N[C@@H](CCCNC(=N)N)C(=O)N[C@@H](CCCNC(=N)N)C(=O)NCC(=O)N[C@@H](CC(C)C)C(=O)N[C@@H](CCC(=O)O)C(=O)O", "note": "[MT2-16]", "values": [
      {"measurement": "IC50", "setting": "[1]", "result": 50, "unit": "nM"}
    ]},
    {"molecule": "CC(C)C[C@H](NC(=O)[C@H](Cc1ccc(O)cc1)NC(=O)[C@H](C)NC(=O)[C@H](CCCNC(=N)N)NC(=O)[C@H](CC(C)C)NC(=O)[C@H](CCC(N)=O)NC(=O)[C@H](CCC(=O)O)NC(=O)[C@H](C)NC(=O)[C@@H](N)CCC(=O)O)C(=O)N[C@@H](CC(=O)O)C(=O)NCC(=O)N[C@H](C(=O)NCC(=O)N[C@H](C(=O)N[C@@H](CCC(=O)O)C(=O)O)C(C)C)[C@@H](C)O", "note": "[A3 152–166]", "values": [
      {"measurement": "IC50", "setting": "[2]", "result": 40, "unit": "nM"}
    ]},
    {"molecule": "KAACPTMGEAHNDKRADPAF [WNV P8, WNV Env variant of ZIKV Env peptide 8]", "values": [
      {"measurement": "IFNγ ELISpot response of ZIKV Env primed T cells to peptide (in words), HLA-DQ8", "setting": "[3]", "result": "cross-reactive epitope recognition"}
    ]},
    {"molecule": "FNCLGMSNRDFLEGVSGATW [WNV P1]", "values": [
      {"measurement": "IFNγ ELISpot response of splenic cells to peptide", "setting": "[4]", "result": "Strong responses; also recorded: of similar magnitude to the ZIKV p1 response"},
      {"measurement": "IFNγ ELISpot response of ZIKV Env primed T cells to peptide (in words), HLA-DR1501", "setting": "[5]", "result": "cross-reactive responses"},
      {"measurement": "IFNγ ELISpot response of ZIKV Env primed T cells to peptide (in words), HLA-DR1", "setting": "[6]", "result": "significant responses"},
      {"measurement": "IFNγ ELISpot response of ZIKV Env primed T cells to peptide (in words), HLA-DQ8", "setting": "[3]", "result": "significant responses"}
    ]}
  ]
}
